Results: PubChem BioAssay (NCI)
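How tested: cells in 96-well plates exposed to compound for 48 hours at five concentrations. Here, GI50 denotes the concentration required for 50% inhibition of growth. Definition used: TGI = concentration required for complete inhibition of growth.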

Columns and labels:
Test in all cases: NCI anticancer screen, dose series, 48 h
[1] = test system: HS 578T breast
[2] = test system: SR leukemia
[3] = test system: OVCAR-5 ovarian
[4] = test system: NCI/ADR-RES ovarian
[5] = test system: TK-10 renal
[6] = test system: SK-OV-3 ovarian
[7] = test system: HCT-15 colon
[8] = test system: NCI-H460 lung
[9] = test system: OVCAR-4 ovarian
[10] = test system: MCF7 breast
[11] = test system: HCT-116 colon
[12] = test system: M14 melanoma
[13] = test system: SW-620 colon
[14] = test system: ACHN renal
[15] = test system: SF-295 CNS
[16] = test system: COLO 205 colon
[17] = test system: DU-145 prostate
[18] = test system: HL-60(TB) leukemia
[19] = test system: SF-539 CNS
[20] = test system: NCI-H522 lung
[21] = test system: SK-MEL-28 melanoma
[22] = test system: HOP-62 NSCLC
[23] = test system: PC-3 prostate
[24] = test system: LOX IMVI melanoma
[25] = test system: KM12 colon
[26] = test system: CAKI-1 renal
[27] = test system: SNB-19 CNS
[28] = test system: RXF 393 renal
[29] = test system: UACC-257 melanoma
[30] = test system: SF-268 CNS
[31] = test system: SK-MEL-5 melanoma
[32] = test system: MDA-MB-435
[33] = test system: UO-31 renal
[34] = test system: UACC-62 melanoma
[35] = test system: EKVX NSCLC
[36] = test system: IGROV1 ovarian
[37] = test system: SK-MEL-2 melanoma
[38] = test system: K-562 leukemia
[39] = test system: BT-549 breast
[40] = test system: SN12C renal
[41] = test system: 786-0 renal
[42] = test system: T-47D breast
[43] = test system: HOP-92 NSCLC
[44] = test system: RPMI-8226 leukemia
[45] = test system: NCI-H23 lung
[46] = test system: U251 CNS
[47] = test system: HCC-2998 colon
[48] = test system: MDA-MB-231 breast
[49] = test system: OVCAR-8 ovarian
[50] = test system: A549 NSCLC
[51] = test system: OVCAR-3 ovarian

## Oc1ccc(Nc2nc3ccccc3c3occc23)cc1
[1]
  GI50: 16.5 µM
  TGI: 45.4 µM
[2]
  GI50: 31.4 µM
  TGI: > 100 µM
[3]
  GI50: 15.6 µM
  TGI: 38.3 µM
[4]
  GI50: 16.2 µM
  TGI: 31.5 µM
[5]
  GI50: 13 µM
  TGI: 27.1 µM
[6]
  GI50: 16.2 µM
  TGI: 33.7 µM
[7]
  GI50: 14.3 µM
  TGI: 40.5 µM
[8]
  GI50: 12.6 µM
  TGI: 36.1 µM
[9]
  GI50: 12.3 µM
  TGI: 98.9 µM
[10]
  GI50: 11.5 µM
  TGI: 44.4 µM
[11]
  GI50: 16.3 µM
  TGI: 34.5 µM
[12]
  GI50: 14.2 µM
  TGI: 34.6 µM
[13]
  GI50: 19.7 µM
  TGI: 50.5 µM
[14]
  GI50: 4.54 µM
  TGI: 29.4 µM
[15]
  GI50: 11 µM
  TGI: 23.9 µM
[16]
  GI50: 18.9 µM
  TGI: 50.1 µM
[17]
  GI50: 11.3 µM
  TGI: 23.4 µM
[18]
  GI50: 10.2 µM
  TGI: > 100 µM
[19]
  GI50: 16.5 µM
  TGI: 33.7 µM
[20]
  GI50: 9.03 µM
  TGI: 26.1 µM
[21]
  GI50: 17.6 µM
  TGI: 45.6 µM
[22]
  GI50: 16.9 µM
  TGI: > 100 µM
[23]
  GI50: 16.1 µM
  TGI: 66.4 µM
[24]
  GI50: 2.21 µM
  TGI: 15.9 µM
[25]
  GI50: 15.5 µM
  TGI: 38.6 µM
[26]
  GI50: 12.1 µM
  TGI: 28.1 µM
[27]
  GI50: 17.2 µM
  TGI: 50.5 µM
[28]
  GI50: 11.3 µM
  TGI: 41.3 µM
[29]
  GI50: 12.9 µM
  TGI: 30.7 µM
[30]
  GI50: 11.4 µM
  TGI: 31.6 µM
[31]
  GI50: 8.15 µM
  TGI: 21.9 µM
[32]
  GI50: 9.77 µM
  TGI: 21.6 µM
[33]
  GI50: 10.1 µM
  TGI: 33.3 µM
[34]
  GI50: 11.7 µM
  TGI: 23.9 µM
[35]
  GI50: 14.5 µM
  TGI: 39.2 µM
[36]
  GI50: 2.93 µM
  TGI: 23.5 µM
[37]
  GI50: 18.2 µM
  TGI: 42.1 µM
[38]
  GI50: 9.84 µM
  TGI: > 100 µM
[39]
  GI50: 6.72 µM
  TGI: 34.6 µM
[40]
  GI50: 12.2 µM
  TGI: 26.5 µM
[41]
  GI50: 12.2 µM
  TGI: 26.8 µM
[42]
  GI50: 17 µM
  TGI: 51.2 µM
[43]
  GI50: 13.9 µM
  TGI: 32 µM
[44]
  GI50: 7.63 µM
  TGI: 72.6 µM
[45]
  GI50: 12.4 µM
  TGI: 28.5 µM
[46]
  GI50: 11.3 µM
  TGI: 26.1 µM
[47]
  GI50: 11.4 µM
  TGI: 23.7 µM
[48]
  GI50: 5.34 µM
  TGI: 25.7 µM
[49]
  GI50: 17.1 µM
  TGI: 58.8 µM
[50]
  GI50: 14.4 µM
  TGI: 52.1 µM
[51]
  GI50: 5.8 µM
  TGI: 22.8 µM
